Laboratory results from ChEMBL document CHEMBL1201862, “PubChem BioAssay data set” (2004).
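Growth conditions: 96-well plates. Treatment: test compound, 48 hours, 5 concentrations. Analysis: linear interpolation between bracketing concentrations; unreached endpoints set to highest concentration. Here, GI50 denotes the concentration required for 50% inhibition of growth.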 Activity calls are given as the source filed them. Rule as the data show it: active = GI50 up to about 1.1 µM and inactive = higher.

Assays:
Test in all cases: NCI tumour cell line growth inhibition, 48 h
U-251 = system: U-251
ACHN = system: ACHN
A498 = system: A498
UACC-257 = system: UACC-257
SF-295 = system: SF-295
SF-539 = system: SF-539
786-0 = system: 786-0
HOP-18 = system: HOP-18
UACC-62 = system: UACC-62
M19-MEL = system: M19-MEL
IGROV-1 = system: IGROV-1
SK-MEL-5 = system: SK-MEL-5
KM-20L2 = system: KM-20L2
HCT-116 = system: HCT-116
SW-620 = system: SW-620
OVCAR-8 = system: OVCAR-8
SNB-19 = system: SNB-19
UO-31 = system: UO-31
SK-MEL-2 = system: SK-MEL-2
NCI-H23 = system: NCI-H23
A549 = system: A549
SN12C = system: SN12C
CAKI-1 = system: CAKI-1
COLO 205 = system: COLO 205
HT-29 = system: HT-29
XF498 = system: XF498
HCC 2998 = system: HCC 2998
HL-60 = system: HL-60
RPMI-8226 = system: RPMI-8226
HCT-15 = system: HCT-15
OVCAR-4 = system: OVCAR-4
K562 = system: K562
NCI-H522 = system: NCI-H522
DMS-114 = system: DMS-114
Malme-3M = system: Malme-3M
LXFL 529 = system: LXFL 529
SK-MEL-28 = system: SK-MEL-28
HOP-92 = system: HOP-92
CCRF-CEM = system: CCRF-CEM
DMS-273 = system: DMS-273
EKVX = system: EKVX
NCI-H460 = system: NCI-H460
MOLT-4 = system: MOLT-4
SR = system: SR
HOP-62 = system: HOP-62
OVCAR-5 = system: OVCAR-5
RXF 393 = system: RXF 393
TK-10 = system: TK-10
SK-OV-3 = system: SK-OV-3
DLD-1 = system: DLD-1
M14 = system: M14
SNB-75 = system: SNB-75
SF-268 = system: SF-268
LOX IMVI = system: LOX IMVI
SNB-78 = system: SNB-78
KM12 = system: KM12
OVCAR-3 = system: OVCAR-3
NCI-H226 = system: NCI-H226
RXF 631 = system: RXF 631

With CCc1cccc(C)c1NC(=O)CCc1nnc(SC)o1 the GI50 (U-251) was > 100 µM (inactive), the GI50 (ACHN) was > 100 µM (inactive) and the GI50 (A498) was > 100 µM (inactive). The GI50 (UACC-257) was > 100 µM (inactive), the GI50 (SF-295) was > 100 µM (inactive) and the GI50 (SF-539) was > 100 µM (inactive). For the same compound, the GI50 (786-0) was > 100 µM (inactive), the GI50 (HOP-18) was > 100 µM (inactive) and the GI50 (UACC-62) was > 100 µM (inactive). The GI50 (M19-MEL) was > 100 µM (inactive), the GI50 (IGROV-1) was > 100 µM (inactive) and the GI50 (SK-MEL-5) was > 100 µM (inactive). For the same compound, the GI50 (KM-20L2) was > 100 µM (inactive), the GI50 (HCT-116) was > 100 µM (inactive) and the GI50 (SW-620) was > 100 µM (inactive). The GI50 (OVCAR-8) was > 100 µM (inactive), the GI50 (SNB-19) was > 100 µM (inactive) and the GI50 (UO-31) was > 100 µM (inactive). For the same compound, the GI50 (SK-MEL-2) was > 100 µM (inactive), the GI50 (NCI-H23) was > 100 µM (inactive) and the GI50 (A549) was > 100 µM (inactive). The GI50 (SN12C) was > 100 µM (inactive), the GI50 (CAKI-1) was > 100 µM (inactive) and the GI50 (COLO 205) was > 100 µM (inactive). The GI50 (HT-29) was > 100 µM (inactive), the GI50 (XF498) was > 100 µM (inactive) and the GI50 (HCC 2998) was > 100 µM (inactive). For the same compound, the GI50 (HL-60) was > 100 µM (inactive), the GI50 (RPMI-8226) was > 100 µM (inactive) and the GI50 (HCT-15) was greater than 100 µM. The GI50 (OVCAR-4) was > 100 µM (inactive), the GI50 (K562) was > 100 µM (inactive) and the GI50 (NCI-H522) was > 100 µM (inactive). For the same compound, the GI50 (DMS-114) was > 100 µM (inactive), the GI50 (Malme-3M) was > 100 µM (inactive) and the GI50 (LXFL 529) was > 100 µM (inactive). For the same compound, the GI50 (SK-MEL-28) was > 100 µM (inactive), the GI50 (HOP-92) was > 100 µM (inactive) and the GI50 (CCRF-CEM) was > 100 µM (inactive). For the same compound, the GI50 (DMS-273) was > 100 µM (inactive), the GI50 (EKVX) was > 100 µM (inactive) and the GI50 (NCI-H460) was > 100 µM (inactive). The GI50 (MOLT-4) was > 100 µM (inactive), the GI50 (SR) was 0.622 µM (active) and the GI50 (HOP-62) was > 100 µM (inactive). For the same compound, the GI50 (OVCAR-5) was > 100 µM (inactive), the GI50 (RXF 393) was > 100 µM (inactive) and the GI50 (TK-10) was > 100 µM (inactive). The GI50 (SK-OV-3) was > 100 µM (inactive), the GI50 (DLD-1) was > 100 µM (inactive) and the GI50 (M14) was > 100 µM (inactive). The GI50 (SNB-75) was > 79.4 µM (inactive), the GI50 (SF-268) was > 100 µM (inactive) and the GI50 (LOX IMVI) was > 100 µM (inactive). For the same compound, the GI50 (SNB-78) was > 100 µM (inactive), the GI50 (KM12) was > 100 µM (inactive) and the GI50 (OVCAR-3) was > 100 µM (inactive).
For O=C1C2=C(c3ccccc31)C(c1ccc(Cl)cc1)N1C(=O)CCSC1=N2 (stereo not given), the GI50 (U-251) was > 100 µM (inactive), the GI50 (ACHN) was > 100 µM (inactive) and the GI50 (A498) was > 100 µM (inactive). For the same compound, the GI50 (UACC-257) was > 100 µM (inactive), the GI50 (SF-295) was 99.3 µM (inactive) and the GI50 (SF-539) was > 100 µM (inactive). For the same compound, the GI50 (786-0) was > 100 µM (inactive), the GI50 (UACC-62) was 54.3 µM (inactive) and the GI50 (M19-MEL) was > 100 µM (inactive). For the same compound, the GI50 (NCI-H226) was 51.8 µM (inactive), the GI50 (IGROV-1) was 98.6 µM (inactive) and the GI50 (SK-MEL-5) was 47.9 µM (inactive). For the same compound, the GI50 (KM-20L2) was > 100 µM (inactive), the GI50 (HCT-116) was 69.2 µM (inactive) and the GI50 (SW-620) was 63.1 µM (inactive). For the same compound, the GI50 (OVCAR-8) was > 10 µM (inactive), the GI50 (SNB-19) was > 100 µM (inactive) and the GI50 (UO-31) was 42.9 µM (inactive). For the same compound, the GI50 (SK-MEL-2) was > 100 µM (inactive), the GI50 (NCI-H23) was 76.7 µM (inactive) and the GI50 (A549) was 69.3 µM (inactive). The GI50 (SN12C) was 44.6 µM (inactive), the GI50 (CAKI-1) was > 100 µM (inactive) and the GI50 (COLO 205) was > 100 µM (inactive). For the same compound, the GI50 (RXF 631) was > 100 µM (inactive), the GI50 (HT-29) was > 100 µM (inactive) and the GI50 (XF498) was 41.3 µM (inactive). The GI50 (HCC 2998) was > 100 µM (inactive), the GI50 (HL-60) was 34.8 µM (inactive) and the GI50 (RPMI-8226) was 39 µM (inactive). The GI50 (HCT-15) was 67.8 µM, the GI50 (OVCAR-4) was 36.1 µM (inactive) and the GI50 (K562) was 81.1 µM (inactive). The GI50 (NCI-H522) was 45.5 µM (inactive), the GI50 (DMS-114) was 67.6 µM (inactive) and the GI50 (Malme-3M) was 89.3 µM (inactive). The GI50 (LXFL 529) was 53.2 µM (inactive), the GI50 (SK-MEL-28) was > 100 µM (inactive) and the GI50 (HOP-92) was 31.4 µM (inactive). The GI50 (CCRF-CEM) was 51.1 µM (inactive), the GI50 (DMS-273) was > 100 µM (inactive) and the GI50 (EKVX) was 68.2 µM (inactive). The GI50 (MOLT-4) was 41.8 µM (inactive), the GI50 (HOP-62) was > 100 µM (inactive) and the GI50 (OVCAR-5) was > 100 µM (inactive). The GI50 (TK-10) was > 100 µM (inactive), the GI50 (SK-OV-3) was > 100 µM (inactive) and the GI50 (DLD-1) was > 100 µM (inactive). The GI50 (M14) was > 100 µM (inactive), the GI50 (SNB-75) was 43.2 µM (inactive) and the GI50 (SF-268) was > 100 µM (inactive). The GI50 (KM12) was 99.5 µM (inactive) and the GI50 (OVCAR-3) was 84.3 µM (inactive).
